US12303489B2, “Combination treatment of arthritic disease” (SYNACT PHARMA APS, priority 2019, dated 2025)

Columns and labels:
[1] = tested on: K/BxN serum induced arthritis in C57/BL6 mice; test: K/BxN serum transfer arthritis, incidence of severe arthritis; assay type: in vivo; conditions: K/BxN serum i.p. days 0 and 2; 8 days study period; N=6; drug alone
Description: Six week-old C57/BL6 mice were purchased from Charles River and left for one week for acclimatization before starting the experiment.
Arthritis was induced with two i.p. injections of 100 μl K/BxN serum on days 0 and 2 (for details see J Immunol 2015; 194:3381-3388).
Methotrexate and Veh2 (12.5% carbonate) were administered on days 3, 5 and 7 by i.p. injection (injected volume: 200 μl).
Preparation of methotrexate formulation: A small volume of 0.1M carbonate-bicarbonate buffer pH=9.6 was used to dissolve methotrexate (Sigma Cat no: A6770). Then, PBS was used to reach the desired concentration. […] Diluted compound was divided in single-use aliquots and stored at −20° C. until use.
The development of arthritis was monitored daily from day 0 to day 8.
Mice were sacrificed on day 8 after recording the daily measurements.
Visible signs of arthritis were assessed using the scoring method as described in Am J Pathol, 2014; 184(8):2333-41 consisting on assigning a score of 0-3 per paw, reaching a maximum of 12 per mouse: • Score 0: no signs of inflammation. • Score 1: subtle inflammation, localized. • Score 2: easily identified but localized. • Score 3: evident inflammation, not localized. […]
The incidence of severe arthritis was calculated as the % of mice in each group that reached a total score of 10.

[2] = Phase I Part I: single ascending oral dose pharmacokinetics (oral suspension); assay type: in vivo, human (healthy volunteers)
Description: FIG. 2: Plasma concentration following single oral dosing of test compound in healthy volunteers. […] Dose levels of test compound: 100, 200, 400, 600 or 800 mg. Consecutive plasma samples were collected and concentration in plasma determined by LCMS-MS. N=6 per dose level. Mean per group.

[3] = Phase I Part II: comparative bioavailability tablet vs. oral suspension; assay type: in vivo, human (healthy volunteers); conditions: 200 mg as two 100 mg tablets vs. 200 mg oral suspension, three-way cross-over
[4] = Phase I Part III: 14-day repeated dose pharmacokinetics, tablets; assay type: in vivo, human (healthy volunteers); conditions: tablets 100 mg daily (Group 1)
Description: (§1) Fourteen days repeated dosing was initiated using a tablet formulation (Part III) and was completed (Part IV) using the suspension for oral administration.
A total of 111 subjects were randomized; 104 young healthy male volunteers and eight (8) post-menopausal women.

[5] = Phase I Part IV: 14-day repeated dose pharmacokinetics, oral suspension; assay type: in vivo, human (healthy volunteers)
Description: FIG. 3: Plasma concentration following repeated oral dosing of test compound in healthy volunteers. […] Dose levels of test compound 1: 50, 100, 200 mg. Consecutive plasma samples were collected following the last day of dosing (day 14) and concentration in plasma determined by LCMS-MS. N=9 per dose level. Mean+/−SD per group.

MC1R [6] = conditions: cited from earlier work
MC3R = conditions: induces ERK1/2-phosphorylation and Ca2+ mobilization; cited from earlier work
MC1R [7] = target: MC1R (Homo sapiens, UniProt Q01726); conditions: WO 2007/141343; cited from earlier work
MC1R (Homo sapiens, UniProt Q01726), sequence (Q01726 whole entry, species assumed): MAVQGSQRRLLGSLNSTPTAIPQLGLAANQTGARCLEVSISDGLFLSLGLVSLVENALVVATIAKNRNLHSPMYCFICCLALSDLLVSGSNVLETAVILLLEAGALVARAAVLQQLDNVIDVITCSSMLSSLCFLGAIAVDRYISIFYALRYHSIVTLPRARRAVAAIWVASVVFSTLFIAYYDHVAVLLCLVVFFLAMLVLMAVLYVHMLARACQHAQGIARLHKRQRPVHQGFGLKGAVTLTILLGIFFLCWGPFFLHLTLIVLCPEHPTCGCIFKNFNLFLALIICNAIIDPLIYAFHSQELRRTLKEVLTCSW

[8] = Phase I Part I: single ascending oral dose safety
Description: as §1
The two first male groups were composed of 3 subjects receiving active and one subject placebo; the other groups consisted of 6 subjects receiving active IMP and two subjects receiving placebo. Forty-eight (48) healthy male volunteers aged 19 to 39 years and eight (8) healthy postmenopausal female volunteers, aged 47 to 60 years were included.

[9] = Phase I Part IV: 14-day repeated dose safety, oral suspension
Description: A Part IV was added to the study that was identical to Study Part III but conducted with the oral suspension in fasting conditions.
The dose levels tested were 50 mg, 100 mg or 200 mg with matching placebo (See FIG. 3).

[10] = female post-menopausal subjects, single 400 mg oral suspension
[11] = 50, 100 or 200 mg once daily for 14 days

CC(=O)O.N=C(N)N/N=C/C=C/c1cccn1-c1ccccc1[N+](=O)[O-] [AP1189]
incidence of severe arthritis (% of mice in each group that reached a total score of 10) [1]: 50% | Cmax and AUCs compared to male subjects [2, 10]: slightly increased | apparent clearance [2, 10]: 17.26 L/h | apparent volume of distribution compared to male subjects [2, 10]: similar | inter-individual variability for Cmax and AUCs ([2]; male subjects, single oral suspension, dose range 50-800 mg, fasting): < 36% | exposure at the maximum administrated dose (MAD) above expected exposure level for therapeutic efficacy ([2]; single oral dose, MAD): more than 10 × | exposure of tablet compared to oral suspension [3]: lower exposure with higher variability | bioavailability within and between subjects [4]: high and unpredicted degree of bioavailability both within and between subjects | exposure judged on Cmax, span [4]: from below the limit of quantification (BLQ) up to levels expected to be more than three times the exposure expected to induce therapeutic effects | day steady state achieved ([5]; 50 mg once daily oral suspension): 7 days | peak increase compared to cohort 1 (50 mg) ([5]; 100 mg once daily oral suspension): approximately 2 fold | Cmax ([5]; male, human, plasma, oral, 200 mg once daily, steady conditions, read-out: C Max (mean +/− SD, N = 9)): 0.893 ± 0.198 µg/mL | activity at receptor MC1R (MC1R [6]; induces ERK1/2-phosphorylation and Ca2+ mobilization): biased dual agonist | canonical cAMP generation (MC1R [6]; receptors MC1R and MC3R, hence no MC1R-induced melanogenesis): does not provoke canonical cAMP generation | activity at receptor MC3R (MC3R): biased dual agonist | binding to MC1R (MC1R [7]): shown to bind the MC1R | QTcF and other cardiac parameters ([8]; continuous 24-hours 1000 HZ Holter ECG recording, single dose): No AP1189 associated increases in QTcF | increase in aminotransferases, above the normal upper value of ALT ([8]; male subjects, single dose 400, 600 or 800 mg): up to 1.6 | subjects with isolated increases in aminotransferases ([8]; male subjects, single dose (1 at 400 mg, 2 at 600 mg, 1 at 800 mg)): 4 subjects | severe AEs / serious AEs ([8]; single oral dose 15-800 mg): No severe AEs nor serious AEs | treatment-related changes in vital signs ([8]; single oral dose 15-800 mg): No treatment-related changes in vital signs | maximum tolerated dose (MTD) ([8]; single oral dose up to 800 mg): not reached | QTcF in repeated standard 12 lead safety ECG [9, 11]: No individual QTcF clinically significant values | severe AEs / serious AEs [9, 11]: No severe AEs nor serious AEs | subjects treated with active with isolated increases in aminotransferases ([9]; Cohort 3, 200 mg once daily for 14 days): 3 subjects | TEAEs considered possibly related to the study treatment ([9]; once daily for 14 days, 2 at 50 mg, 2 at 200 mg, gastrointestinal disorders): 4 events | MTD ([9]; up to 200 mg once daily for 14 days): not reached

CN(Cc1cnc2nc(N)nc(N)c2n1)c1ccc(C(=O)N[C@@H](CCC(=O)O)C(=O)O)cc1 [methotrexate, reference compound]
incidence of severe arthritis (% of mice in each group that reached a total score of 10) [1]: 50%
